The values that follow come from patent US20250339569A1, “CARBONIC ANHYDRASE IX LIGANDS” (priority 2021, published 2025).

One data set concerns the target T1, NEP (Homo sapiens, UniProt P08473).
T1 construct: Recombinant soluble human NEP; purchased BioTechne, Wiesbaden, Germany
Put plainly: Proteolytic stability assay against NEP. It counts as in vitro ADME. The note with it: human, recombinant soluble human NEP, 100 ng/mL NEP, 10 μM compound, 37°C, read-out: % intact compound remaining after 24 h incubation. The method, then:
To assess the stability of compounds against NEP, the compounds were subjected to an in vitro assay based on the protocol described by Edelson et al. (Edelson et al., Pulmonary pharmacology & therapeutics, 2013, 26, 229-238).
Recombinant soluble human NEP (BioTechne, Wiesbaden, Germany) at a concentration of 100 ng/mL was mixed with the compound (10 μM) and a stable internal standard (10 μM) and incubated at 37° C. After several time points, samples were taken and analyzed with LC-MS.
The activity of NEP was examined using a commercially available chromogenic substrate of NEP.

A short description of data set [1]: Plasma stability assay, mouse plasma. The note with it: for remaining at 4 h, […]: mouse, plasma (K2EDTA); for % intact compound remaining (incubation time): mouse plasma, 37°C, 24 h.
In data set [2] the target is T2, CAIX-expressing human HT-29 colorectal cancer cells (Homo sapiens, UniProt Q16790).
T2 construct: CAIX-expressing human HT-29 colorectal cancer cells; host or cells: HT-29 human colorectal cancer cells
The experiment in a line: FACS binding assay (IC50 determination, competition with tracer 3BP-2776 or 3BP-4149). The following applies: 4° C., 1 hour, read-out: pIC50 category (activity) (converted). Put shortly:
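HT-29 cells in FACS buffer (PBS, 1% FCS) at 500.000 cells/ml were exposed to compounds competing with a labelled tracer, with biotinylated compounds detected by 1 μg/mL APC-streptavidin for 30 min on ice. APC/Cy5 median fluorescence was read by flow cytometry and IC50 derived by 4PL fit.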

In data set [3] the target is T3, human carbonic anhydrase IX (hCAIX-Fc) (Homo sapiens, UniProt Q16790).
T3 construct: purchased SinoBliological (Sino Biological) 10107-H02H
Put plainly: Surface plasmon resonance assay with hCAIX-Fc. The class given is binding. The following applies: 25° C.; for t1/2 category (activity): SPR dissociation half-life, hCAIX-Fc; for Kd: SPR, hCAIX-Fc captured, read-out: pKD category (activity) (converted).

Where [4] appears, read: FACS competition on HT-29 cells, Tracer ID 3BP-2776 (10 nM, biotin-labeled).
The mark [5] stands for this setting: FACS binding assay, HT-29 cells, competition with tracer 3BP-2776 (10 nM, biotin-labeled).

Like-named read-outs stand apart in the source and are kept apart here. Starred links: 1 amine or outer side, 2 acyl side, 3 side chain; linkers in the order of their positions; H or OH if unused. Positions of bridges follow the written chain, without caps; N, C: chain ends. Non-standard residues stand in square brackets, D forms with d. Residues, ends and D or L forms follow the SMILES beside them. *: point of attachment. X16 = NC(=O)[C@H](CCCCNC(=O)CN1CCN(CC(=O)O)CCN(CC(=O)O)CCN(CC(=O)O)CC1)NC(=O)CCC(=O)NCCCOCCOCCOCCCN*; NH(CH2)3NHDOTA = O=C(O)CN1CCN(CC(=O)O)CCN(CC(=O)NCCCN*)CCN(CC(=O)O)CC1; DOTA = O=C(O)CN1CCN(CC(=O)O)CCN(CC(=O)*)CCN(CC(=O)O)CC1; Phe(3,4-Cl2) = N[C@@H](Cc1ccc(Cl)c(Cl)c1)C(=O)O; mXylylene = c1cc(C[*:1])cc(C[*:2])c1; Orn(Me2) = CN(C)CCC[C@H](N)C(=O)O; X2 = O=C(CN1CCC(N[*:1])CC1)[*:2]; tBuAla = CC(C)(C)C[C@H](N)C(=O)O; Dap = NC[C@H](N)C(=O)O

T1 sequence (P08473 52-750 limits assumed): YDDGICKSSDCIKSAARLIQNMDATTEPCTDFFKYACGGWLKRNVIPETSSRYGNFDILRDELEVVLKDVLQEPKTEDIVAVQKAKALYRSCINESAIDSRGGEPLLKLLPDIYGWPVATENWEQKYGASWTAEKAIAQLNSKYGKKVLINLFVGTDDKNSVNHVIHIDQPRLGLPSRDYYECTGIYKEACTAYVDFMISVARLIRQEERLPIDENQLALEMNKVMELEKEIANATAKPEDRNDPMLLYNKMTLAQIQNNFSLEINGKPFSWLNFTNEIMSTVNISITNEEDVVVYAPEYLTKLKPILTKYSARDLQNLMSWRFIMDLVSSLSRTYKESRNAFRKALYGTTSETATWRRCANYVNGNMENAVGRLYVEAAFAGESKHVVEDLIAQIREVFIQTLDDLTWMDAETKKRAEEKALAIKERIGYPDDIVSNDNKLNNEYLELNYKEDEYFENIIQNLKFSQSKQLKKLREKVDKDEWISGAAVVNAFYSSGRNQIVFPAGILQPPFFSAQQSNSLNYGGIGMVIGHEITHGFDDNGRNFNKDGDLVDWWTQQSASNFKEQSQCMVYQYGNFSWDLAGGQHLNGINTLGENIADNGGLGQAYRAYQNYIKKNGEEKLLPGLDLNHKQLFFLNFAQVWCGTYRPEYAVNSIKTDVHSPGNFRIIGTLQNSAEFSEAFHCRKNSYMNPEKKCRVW

As for `CC(=O)N[C@H](C(=O)N[C@@H](Cc1ccc(O)cc1)C(=O)N[C@H]1CSCc2cccc(c2)CSC[C@@H](C(=O)NCCCOCCOCCOCCCNC(=O)CCC(=O)N[C@@H](CCCCNC(=O)CN2CCN(CC(=O)O)CCN(CC(=O)O)CCN(CC(=O)O)CC2)C(N)=O)NC(=O)[C@H](CCC(N)=O)NC(=O)[C@H](Cc2c[nH]c3ccccc23)NC(=O)[C@H]([C@@H](C)O)NC(=O)[C@H](CC(C)C)NC(=O)[C@H](Cc2c[nH]c3ccccc23)NC(=O)[C@H](CC(=O)O)NC(=O)CNC(=O)[C@H](CCC(=O)O)NC1=O)C(C)C` [3BP-2949] (Ac-VYCEGDWLTWQC-X16; linker 3-12 via mXylylene; N-terminus and C-terminus assumed), the amount remaining at 24 h, 10 μM at NEP stood at 82%. This compound displayed a fraction remaining at 4 h, […] in data set [1] of 95%.

In the case of `CC(=O)N[C@H](C(=O)N[C@@H](Cc1ccc(O)cc1)C(=O)N[C@H]1CSCc2cccc(c2)CSC[C@@H](C(N)=O)NC(=O)[C@H](CCC(N)=O)NC(=O)[C@H](Cc2c[nH]c3ccccc23)NC(=O)[C@H]([C@@H](C)O)NC(=O)[C@H](CC(C)C)NC(=O)[C@H](Cc2c[nH]c3ccccc23)NC(=O)[C@H](CC(=O)O)NC(=O)CNC(=O)[C@H](CCC(=O)O)NC1=O)C(C)C` [3BP-2837] (Ac-VYCEGDWLTWQC-NH2; linker 3-12 via mXylylene), the amount remaining at 24 h, 10 μM at NEP was above 95%. The fraction remaining at 4 h, […] in data set [1] is above 95%. The IC50 in data set [2] (setting [4]) is below 10 nM.

With `CC(=O)N[C@H](C(=O)N[C@@H](Cc1ccc(O)cc1)C(=O)N[C@H]1CSCc2cccc(c2)CSC[C@@H](C(N)=O)NC(=O)[C@H](C)NC(=O)[C@H](Cc2c[nH]c3ccccc23)NC(=O)[C@H]([C@@H](C)O)NC(=O)[C@H](CC(C)C)NC(=O)[C@H](Cc2c[nH]c3ccccc23)NC(=O)[C@H](CC(=O)O)NC(=O)[C@H]2CCCN2C(=O)[C@H](CCC(=O)O)NC1=O)C(C)C` [3BP-3282] (Ac-VYCE[dP]DWLTWAC-NH2; linker 3-12 via mXylylene), the fraction remaining at 24 h, 10 μM at NEP is above 95%. For the same compound, in data set [3], the “t1/2 category (activity)” value is “A (t1/2>15.0 minutes)” and the Kd was below 10 nM. The IC50 in data set [2] (setting [4]) was below 10 nM.

On to `CC(=O)N[C@H](C(=O)N[C@@H](Cc1ccccc1)C(=O)N[C@H]1CSCc2cccc(c2)CSC[C@@H](C(N)=O)NC(=O)[C@H](CCC(=O)NCCCNC(=O)CN2CCN(CC(=O)O)CCN(CC(=O)O)CCN(CC(=O)O)CC2)NC(=O)[C@H](Cc2c[nH]c3ccccc23)NC(=O)[C@H]([C@@H](C)O)NC(=O)[C@H](CC(C)C)NC(=O)[C@H](Cc2c[nH]c3ccccc23)NC(=O)[C@H](CC(=O)O)NC(=O)[C@H]2CCCN2C(=O)[C@H](CCC(=O)O)NC1=O)C(C)C` [3BP-3874] (Ac-VFCE[dP]DWLTWE(NH(CH2)3NHDOTA)C-NH2; linker 3-12 via mXylylene), for which, in data set [1], the “% intact compound remaining (incubation time)” value (“% intact compound remaining” for short) is recorded as above 95%. Besides, in data set [3], the “t1/2 category (activity)” value was “B (t1/2 between 5.1 and 15.0 minutes)”; the Kd is below 10 nM. Besides, the IC50 in data set [2] (setting [4]) was below 10 nM.

Turning to `CC(C)C[C@@H]1NC(=O)[C@H](Cc2c[nH]c3ccccc23)NC(=O)[C@H](CC(N)=O)NC(=O)[C@H]2CCCN2C(=O)[C@H](CCC(=O)O)NC(=O)[C@@H](NC(=O)[C@H](Cc2ccc(O)cc2)NC(=O)[C@@H](NC(=O)CN2CCC(NC(=O)CN3CCN(CC(=O)O)CCN(CC(=O)O)CCN(CC(=O)O)CC3)CC2)C(C)C)CSCc2cccc(c2)CSC[C@@H](C(N)=O)NC(=O)[C@H](CO)NC(=O)[C@H](Cc2c[nH]c3ccccc23)NC(=O)[C@H]([C@@H](C)O)NC1=O` [3BP-4103] ({DOTA}-[X2]VYCE[dP]NWLTWSC-NH2; linker 4-13 via mXylylene), the “% intact compound remaining” value in data set [1] stood at 81%. Besides, in data set [3], the “t1/2 category (activity)” value is recorded as “A (t1/2>15.0 minutes)” and the Kd is below 10 nM. Moreover, the IC50 in data set [2] (setting [5]) was below 10 nM.

In the case of `CC(C)C[C@@H]1NC(=O)[C@H](Cc2ccc(Cl)c(Cl)c2)NC(=O)[C@H](CC(=O)O)NC(=O)[C@H]2CCCN2C(=O)[C@H](CCC(=O)O)NC(=O)[C@@H](NC(=O)[C@H](Cc2ccc(O)cc2)NC(=O)[C@@H](NC(=O)CN2CCC(NC(=O)CN3CCN(CC(=O)O)CCN(CC(=O)O)CCN(CC(=O)O)CC3)CC2)C(C)C)CSCc2cccc(c2)CSC[C@@H](C(N)=O)NC(=O)[C@H](CO)NC(=O)[C@H](Cc2c[nH]c3ccccc23)NC(=O)[C@H]([C@@H](C)O)NC1=O` [3BP-4133] ({DOTA}-[X2]VYCE[dP]D[Phe(3,4-Cl2)]LTWSC-NH2; linker 4-13 via mXylylene), the “% intact compound remaining” value in data set [1] is recorded as above 95%. Moreover, in data set [3], the “t1/2 category (activity)” value was “B (t1/2 between 5.1 and 15.0 minutes)”; the Kd is below 10 nM. Besides, the IC50 in data set [2] (setting [5]) is below 10 nM.

In the case of `CC(C)[C@H](NC(=O)CN1CCC(NC(=O)CN2CCN(CC(=O)O)CCN(CC(=O)O)CCN(CC(=O)O)CC2)CC1)C(=O)N[C@@H](Cc1ccc(O)cc1)C(=O)N[C@H]1CSCc2cccc(c2)CSC[C@@H](C(N)=O)NC(=O)[C@H](CO)NC(=O)[C@H](Cc2c[nH]c3ccccc23)NC(=O)[C@H]([C@@H](C)O)NC(=O)[C@H](CC(C)(C)C)NC(=O)[C@H](Cc2c[nH]c3ccccc23)NC(=O)[C@H](CC(=O)O)NC(=O)[C@H]2CCCN2C(=O)[C@H](CCC(=O)O)NC1=O` [3BP-4142] ({DOTA}-[X2]VYCE[dP]DW[tBuAla]TWSC-NH2; linker 4-13 via mXylylene), in data set [1], the “% intact compound remaining” value was determined as 91%. Besides, in data set [3], the “t1/2 category (activity)” value is “A (t1/2>15.0 minutes)” and the Kd is below 10 nM. Moreover, the IC50 in data set [2] (setting [5]) was below 10 nM.

As to `CC(C)C[C@@H]1NC(=O)[C@H](Cc2c[nH]c3ccccc23)NC(=O)[C@H](CC(=O)O)NC(=O)[C@H]2CCCN2C(=O)[C@H](CCCN(C)C)NC(=O)[C@@H](NC(=O)[C@H](Cc2ccc(O)cc2)NC(=O)[C@@H](NC(=O)CN2CCC(NC(=O)CN3CCN(CC(=O)O)CCN(CC(=O)O)CCN(CC(=O)O)CC3)CC2)C(C)C)CSCc2cccc(c2)CSC[C@@H](C(N)=O)NC(=O)[C@H](CO)NC(=O)[C@H](Cc2c[nH]c3ccccc23)NC(=O)[C@H]([C@@H](C)O)NC1=O` [3BP-4096] ({DOTA}-[X2]VYC[Orn(Me2)][dP]DWLTWSC-NH2; linker 4-13 via mXylylene), the “% intact compound remaining” value in data set [1] was 93%. Further, in data set [3], the “t1/2 category (activity)” value was “B (t1/2 between 5.1 and 15.0 minutes)”; the Kd was below 10 nM. The IC50 in data set [2] (setting [5]) is below 10 nM.

As for `CC(C)C[C@@H]1NC(=O)[C@H](Cc2c[nH]c3ccccc23)NC(=O)[C@H](CC(=O)O)NC(=O)[C@H]2CCCN2C(=O)[C@H](CCC(=O)O)NC(=O)[C@@H]2CSCc3cccc(c3)CSC[C@@H](C(N)=O)NC(=O)[C@H](CNC(=O)C[C@H](NC(=O)[C@@H](NC(=O)CN3CCN(CC(=O)O)CCN(CC(=O)O)CCN(CC(=O)O)CC3)C(C)C)C(=O)N2)NC(=O)[C@H](Cc2c[nH]c3ccccc23)NC(=O)[C@H]([C@@H](C)O)NC1=O` [3BP-4264] ({DOTA}-VDCE[dP]DWLTW[Dap]C-NH2; lactam 2-11; linker 3-12 via mXylylene), in data set [1], the “% intact compound remaining” value was above 95%. In data set [3], the “t1/2 category (activity)” value is listed as “A (t1/2>15.0 minutes)” and the Kd is below 10 nM. In addition, in data set [2] (FACS binding assay, HT-29 cells, competition with tracer 3BP-4149 (3 nM, Cy5-labeled)), the IC50 is below 10 nM.

For the compound `CC(C)C[C@@H]1NC(=O)[C@H](Cc2c[nH]c3ccccc23)NC(=O)[C@H](CC(=O)O)NC(=O)[C@H]2CCCN2C(=O)[C@H](CCC(=O)O)NC(=O)[C@@H]2CSCc3cccc(c3)CSC[C@@H](C(N)=O)NC(=O)[C@H](CNC(=O)C[C@H](NC(=O)CN3CCN(CC(=O)O)CCN(CC(=O)O)CCN(CC(=O)O)CC3)C(=O)N2)NC(=O)[C@H](Cc2c[nH]c3ccccc23)NC(=O)[C@H]([C@@H](C)O)NC1=O` [3BP-4253] ({DOTA}-DCE[dP]DWLTW[Dap]C-NH2; lactam 1-10; linker 2-11 via mXylylene), the “% intact compound remaining” value in data set [1] is listed as above 95%. Besides, in data set [3], the “t1/2 category (activity)” value is “B (t1/2 between 5.1 and 15.0 minutes)”; the Kd is below 10 nM. Moreover, the IC50 in data set [2] (setting [5]) is below 10 nM.

For `CC(C)C[C@@H]1NC(=O)[C@H](Cc2c[nH]c3ccccc23)NC(=O)[C@H](CC(=O)O)NC(=O)[C@H]2CCCN2C(=O)[C@H](CCC(=O)O)NC(=O)[C@@H](NC(=O)[C@H](Cc2ccc(O)cc2)NC(=O)CN2CCN(CC(=O)O)CCN(CC(=O)O)CCN(CC(=O)O)CC2)CSCc2cccc(c2)CSC[C@@H](C(N)=O)NC(=O)[C@H](CO)NC(=O)[C@H](Cc2c[nH]c3ccccc23)NC(=O)[C@H]([C@@H](C)O)NC1=O` [3BP-3859] ({DOTA}-YCE[dP]DWLTWSC-NH2; linker 2-11 via mXylylene), in data set [1], the “% intact compound remaining” value was above 95%. The “t1/2 category (activity)” value in data set [3] is “B (t1/2 between 5.1 and 15.0 minutes)”. For the same compound, in data set [2] (setting [4]), the IC50 is below 10 nM.
